Assay results from patent publication US12491170B2, “Stable treprostinil prodrugs” (United Therapeutics Corporation, priority 2020, dated 2025).
Like-named read-outs stand apart in the source and are kept apart here.

Columns and labels:
[1] = Stability in cryopreserved hepatocytes, rat; details: for AUC: rat
[2] = rat
[3] = Stability in cryopreserved hepatocytes, dog; details: for AUC: dog
[4] = dog
[5] = Stability in liver microsomes, dog
[6] = Stability in cryopreserved hepatocytes, human; details: for AUC: human
[7] = Stability in liver microsomes, human; details: for AUC: human
[8] = Stability in liver microsomes, rat

| Trep Concentration (μM) 0 min [1] | Trep Concentration (μM) 15 min [1] | Trep Concentration (μM) 30 min [1] | Trep Concentration (μM) 60 min [1] | Trep Concentration (μM) 120 min [1] | AUC [1] | AUC [2] | Trep Concentration (μM) 0 min [3] | Trep Concentration (μM) 30 min [3] | Trep Concentration (μM) 60 min [3] | Trep Concentration (μM) 120 min [3] | AUC [3] | AUC [4] | Trep Concentration 0 min [5] | Trep Concentration 10 min [5] | Trep Concentration 20 min [5] | Trep Concentration 30 min [5] | Trep Concentration 60 min [5] | Trep Concentration (μM) 0 min [6] | Trep Concentration (μM) 15 min [6] | other results | SMILES |
| --- | --- | --- | --- | --- | --- | --- | --- | --- | --- | --- | --- | --- | --- | --- | --- | --- | --- | --- | --- | --- | --- |
| 0 µM | 0.0238 µM | 0.0421 µM | 0.0712 µM | 0.119 µM | 8.08 µmol·min/L | 2.65 µmol·min/L | 0.00877 µM | 0.262 µM | 0.263 µM | 0.236 µM | 28.28 µmol·min/L | 38.15 µmol·min/L | 0.517 µM | 0.57 µM | 0.609 µM | 0.696 µM | 0.657 µM | 0 µM | 0.198 µM | Trep Concentration (μM) 15 min [3]: 0.227 µM; Trep Concentration (μM) 30 min [6]: 0.294 µM; Trep Concentration (μM) 60 min [6]: 0.338 µM; Trep Concentration (μM) 120 min [6]: 0.335 µM; AUC [6]: 34.85 µmol·min/L; Trep Concentration 0 min [7]: 0.321 µM; Trep Concentration 10 min [7]: 0.365 µM; Trep Concentration 20 min [7]: 0.367 µM; Trep Concentration 30 min [7]: 0.36 µM; Trep Concentration 60 min [7]: 0.252 µM; AUC [7]: 19.91 µmol·min/L; Trep Concentration 0 min [8]: 0.0251 µM; Trep Concentration 10 min [8]: 0.0344 µM; Trep Concentration 20 min [8]: 0.0421 µM; Trep Concentration 30 min [8]: 0.0483 µM; Trep Concentration 60 min [8]: 0.0527 µM | CCCCCC(CCC1C(O)CC2Cc3c(cccc3OCC(=O)O)CC21)OC(=O)C12CC3CC(CC(C3)C1)C2 (centres unmarked) [LXIX] |
| 0 µM | 0.00347 µM | 0.00366 µM | 0.00352 µM | 0.0034 µM | 0.39 µmol·min/L | 0.28 µmol·min/L | 0.00247 µM | 0.0106 µM | 0.00355 µM | 0.00568 µM | 0.63 µmol·min/L | 0.23 µmol·min/L | 0.00302 µM | 0.00333 µM | 0.00398 µM | 0.00409 µM | 0.00389 µM | 0.00177 µM | 0.00195 µM | Trep Concentration (μM) 15 min [3]: 0.00312 µM; Trep Concentration (μM) 30 min [6]: 0.00202 µM; Trep Concentration (μM) 60 min [6]: 0.00194 µM; Trep Concentration (μM) 120 min [6]: 0.00197 µM; AUC [6]: 0.23 µmol·min/L; Trep Concentration 0 min [7]: 0.00327 µM; Trep Concentration 10 min [7]: 0.00286 µM; Trep Concentration 20 min [7]: 0.00309 µM; Trep Concentration 30 min [7]: 0.00264 µM; Trep Concentration 60 min [7]: 0.00244 µM; AUC [7]: 0.17 µmol·min/L; Trep Concentration 0 min [8]: 0.00345 µM; Trep Concentration 10 min [8]: 0.00356 µM; Trep Concentration 20 min [8]: 0.00419 µM; Trep Concentration 30 min [8]: 0.00488 µM; Trep Concentration 60 min [8]: 0.00552 µM | CCCCCC(CCC1C(O)CC2Cc3c(cccc3OCC(=O)O)CC21)OCCN1CCOCC1 (centres unmarked) [L] |
| 0 µM | 0 µM | 0.00373 µM | 0.00634 µM | 0.00941 µM | 0.65 µmol·min/L | 0.16 µmol·min/L | 0 µM | 0.00299 µM | 0.00396 µM | 0.00663 µM | 0.44 µmol·min/L | 1.09 µmol·min/L | 0.00725 µM | 0.0115 µM | 0.0157 µM | 0.0196 µM | 0.0259 µM | 0 µM | 0.0213 µM | Trep Concentration (μM) 15 min [3]: 0 µM; Trep Concentration (μM) 30 min [6]: 0.0378 µM; Trep Concentration (μM) 60 min [6]: 0.0556 µM; Trep Concentration (μM) 120 min [6]: 0.0701 µM; AUC [6]: 5.78 µmol·min/L; Trep Concentration 0 min [7]: 0.0209 µM; Trep Concentration 10 min [7]: 0.0312 µM; Trep Concentration 20 min [7]: 0.0361 µM; Trep Concentration 30 min [7]: 0.0389 µM; Trep Concentration 60 min [7]: 0.0332 µM; AUC [7]: 2.05 µmol·min/L; Trep Concentration 0 min [8]: 0 µM; Trep Concentration 10 min [8]: 0 µM; Trep Concentration 20 min [8]: 0.00316 µM; Trep Concentration 30 min [8]: 0.00337 µM; Trep Concentration 60 min [8]: 0.00402 µM | CCCCCC(CCC1C(O)CC2Cc3c(cccc3OCC(=O)O)CC21)OC(=O)c1ccccc1O (centres unmarked) [LXI] |
| 0.00292 µM | 0.161 µM | 0.266 µM | 0.397 µM | 0.503 µM | 41.38 µmol·min/L | 8.02 µmol·min/L | 0.0381 µM | 0.543 µM | 0.446 µM | 0.4 µM | 53.99 µmol·min/L | 54.72 µmol·min/L | 0.964 µM | 0.917 µM | 0.899 µM | 0.932 µM | 0.873 µM | 0.00744 µM | 0.573 µM | Trep Concentration (μM) 30 min [6]: 0.623 µM; Trep Concentration (μM) 60 min [6]: 0.54 µM; Trep Concentration (μM) 120 min [6]: 0.507 µM; AUC [6]: 62.18 µmol·min/L; Trep Concentration 0 min [7]: 0.883 µM; Trep Concentration 10 min [7]: 0.681 µM; Trep Concentration 20 min [7]: 0.602 µM; Trep Concentration 30 min [7]: 0.513 µM; Trep Concentration 60 min [7]: 0.341 µM; AUC [7]: 32.62 µmol·min/L; Trep Concentration 0 min [8]: 0.035 µM; Trep Concentration 10 min [8]: 0.0741 µM; Trep Concentration 20 min [8]: 0.111 µM; Trep Concentration 30 min [8]: 0.145 µM; Trep Concentration 60 min [8]: 0.206 µM | CCCCCC(CCC1C(O)CC2Cc3c(cccc3OCC(=O)O)CC21)OC(C)=O (centres unmarked) [XLIII] |
| 0 µM | 0 µM | 0 µM | 0 µM | 0 µM | 0.00 µmol·min/L | 0.00 µmol·min/L | 0 µM | 0 µM | 0 µM | 0 µM | 0.00 µmol·min/L | 0.00 µmol·min/L | 0 µM | 0 µM | 0 µM | 0 µM | 0 µM | 0 µM | 0 µM | Trep Concentration (μM) 15 min [3]: 0 µM; Trep Concentration (μM) 30 min [6]: 0 µM; Trep Concentration (μM) 60 min [6]: 0 µM; Trep Concentration (μM) 120 min [6]: 0 µM; AUC [6]: 0.00 µmol·min/L; Trep Concentration 0 min [7]: 0 µM; Trep Concentration 10 min [7]: 0 µM; Trep Concentration 20 min [7]: 0 µM; Trep Concentration 30 min [7]: 0 µM; Trep Concentration 60 min [7]: 0 µM; AUC [7]: 0.00 µmol·min/L; Trep Concentration 0 min [8]: 0 µM; Trep Concentration 10 min [8]: 0 µM; Trep Concentration 20 min [8]: 0 µM; Trep Concentration 30 min [8]: 0 µM; Trep Concentration 60 min [8]: 0 µM | CCCCCC(CCC1C(O)CC2Cc3c(cccc3OCC(=O)O)CC21)OCC(=O)O (centres unmarked) [LVII] |
